Reference: publication PMC10607100, “Anticancer and Antiphytopathogenic Activity of Fluorinated Isatins and Their Water-Soluble Hydrazone Derivatives” (International Journal of Molecular Sciences, 2023)
Values after ≈ are worked out from the molar mass of the structure shown. Read-outs that look alike come from different tables or passages of the source. Blank lines part the entries; values can stand above or below the molecule they belong to.

Legend:
[1] = tested on: M-HeLa; test: MTT cell viability test, M-HeLa; assay type: cell-based, human; details: Homo sapiens, M-HeLa; incubation time 24 h
Protocol: (§1) Human cell cultures of tumor origin—HeLa (cervical tumor), HuTu 80 (human duodenal adenocarcinoma), ChangLiver (human liver HeLa-like line), and normal cell line WI38, VA 13 subline 2RA is a diploid human cell strain composed of fibroblasts derived from healthy lung tissue provided by The Gamaleya National Center for Epidemiology and Microbiology, as well as the Institute of Cytology of the Russian Academy of Sciences. They were grown in a nutrient medium DMEM (PanEco, Moscow, Russia) and MEM (PanEco, Moscow, Russia), containing fetal bovine serum (10% by volume) (ThermoFisher Scientific, Paisley, UK), Glutamax (2 mM) (Gibco, Scotland, UK), and penicillin-streptomycin (1% by volume) (PanEco, Moscow, Russia). The cultivation was carried out at 37 °C in a humidified CO2 atmosphere (5%).
(§2) Cell viability was determined by the MTT test. Cells were seeded in a 96-well plate in the amount of 1 × 10^4 cells/200 µL of complete nutrient medium and cultured at 37 °C in CO2 (5%). After 24 h of incubation, various concentrations of test compounds in the range of 0.1 to 100 μM were added to the cell cultures, and then the cells were cultured under the same conditions for 24 and 72 h. For each concentration, the experiment was carried out in triplicate.
(§3) All compounds were dissolved in DMSO and then diluted with the medium to the required concentration. […] The DMSO was also added to the control wells in a volume of 1%. After the incubation time, MTT (3-(4,5-dimethylthiazol-2-yl)-2,5-diphenyltetrazolium bromide, 5 mg/mL) was added to each well, and plates were additionally incubated for 2 h (until the characteristic color appeared).
(§4) Using a plate analyzer (Cytation3, BioTech Instruments Inc., Winooski, VT, USA), the optical density was determined at 530 nm.
(§5) The IC50 parameter was calculated using the AAT Bioquest program.
(§6) The selectivity index (SI) is calculated as the ratio between the IC50 for normal cells and the IC50 for cancer cells.

[2] = tested on: HuTu 80; test: MTT cell viability test, HuTu 80; assay type: cell-based, human; details: Homo sapiens, HuTu80; incubation time 24 h
Protocol: as §1, §2, §3, §4, §5, §6

[3] = tested on: Chang Liver; test: MTT cell viability test, Chang liver; assay type: cell-based; details: Homo sapiens, incubation time 24 h
Protocol: as §1, §2, §3, §4, §5

[4] = tested on: Micrococcus luteus B-109; test: Agar-well diffusion, bactericidal activity; assay type: cell-based
Excerpt: (§7) Plant pathogenic bacterial strains Micrococcus luteus B-109, Pectobacterium atrosepticum 1043, Pectobacterium carotovorum subsp. carotovorum MI, Pseudomonas fluorescens EL-2.1, and Xanthomonas campestris B-610 and the fungal strain Fusarium oxysporum IBPPM 543 were from the Collection of Rhizosphere Microorganisms, IBPPM RAS (WFCC no. 975, WDCM no. 1021) (CM IBPPM, http://collection.ibppm.ru). The pathogenic fungus Phytophthora cactorum VKM F-985, provided by the All-Russian Collection of Microorganisms (VKM) and deposited at the A.E. Favorsky Irkutsk Institute of Chemistry, SB RAS, was also used as a test organism. Bacteria M. luteus, P. carotovorum subsp. carotovorum, P. atrosepticum, and P. fluorescens were grown in a meat–peptone medium (BP), and X. campestris was grown in the medium with glucose, yeast extract, and calcium carbonate (GYCa). Solid media contained Bacto agar (18 g/L); pH was adjusted to 7.2–7.4. All bacterial cultures were grown at 28 °C. The mycelial cultures of F. oxysporum and P. cactorum were grown on a glucose–peptone–yeast (GPY) nutrient medium at 27 °C. For inoculum preparation, both fungal strains were initially grown on the agar GPY in Petri dishes and then transferred into the seed medium by punching out 5 mm of the agar plate culture with a self-designed cutter.
(§8) The antibacterial and antifungal activities of the compounds were explored using the agar-well diffusion method and the technique of mycelial radial growth inhibition. The method of diffusion in agar (measuring the diameter of growth inhibition zones) was used to determine the bactericidal activity. The 6-mm wells were made in agar medium (GYCa for Xanthomonas campestris or BP for other bacteria). Bacterial suspensions were distributed over the agar surface, and the tested compound’s solution (150 μL) was added to each well. The width of growth inhibition zones around the wells was determined after incubation for 36–40 h.

[5] = tested on: Pectobacterium atrosepticum 1043; test: Agar-well diffusion, bactericidal activity; assay type: cell-based
Excerpt: as §7, §8

[6] = tested on: Pectobacterium carotovorum subsp. carotovorum MI; test: Agar-well diffusion, bactericidal activity; assay type: cell-based
Excerpt: as §7, §8

[7] = tested on: Pseudomonas fluorescens EL-2.1; test: Agar-well diffusion, bactericidal activity; assay type: cell-based
Excerpt: as §7, §8

[8] = tested on: Xanthomonas campestris B-610; test: Agar-well diffusion, bactericidal activity; assay type: cell-based
Protocol: Bacteria M. luteus, P. carotovorum subsp. carotovorum, P. atrosepticum, and P. fluorescens were grown in a meat–peptone medium (BP), and X. campestris was grown in the medium with glucose, yeast extract, and calcium carbonate (GYCa). Solid media contained Bacto agar (18 g/L); pH was adjusted to 7.2–7.4. […] For inoculum preparation, both fungal strains were initially grown on the agar GPY in Petri dishes and then transferred into the seed medium by punching out 5 mm of the agar plate culture with a self-designed cutter.
as §8

[9] = tested on: Fusarium oxysporum IBPPM 543; test: Mycelial radial growth inhibition; assay type: cell-based; details: Fusarium oxysporum; for inhibition at 10 µg/mL / inhibition at 15 µg/mL / inhibition at 30 µg/mL / inhibition at 60 µg/mL: read-out: Inhibition value, I (%)
Excerpt: as §7
(§9) For the fungicidal activity analysis, radial growth (colony diameters) of the fungi on a solid medium in the absence and in the presence of the compounds 5a–e and 7a–c solutions at various concentrations were compared. The method consisted of the following: A sterile GPY agar medium (20.0 mL), which was melted and then allowed to cool to approximately 60 °C, was mixed with the precisely measured volumes of the solutions under question and poured into a sterile Petri dish (90 mm i.d.). After the solidification of GPY agar, the media were inoculated by the fungus using 10-day-old cultures of F. oxysporum or P. cactorum. The inoculation was conducted by transferring a 5-mm (i.d.) GPY-agar block covered with mycelium to the center of the Petri dish, followed by incubation in a thermostat at 27 °C. The fungicidal effect was scored by the size of the mycelium colony on a Petri dish compared to the control without fungicidal admixtures to GPY agar. Each treatment was performed in at least four replicates in two independent experiments. The observation period ended when the control Petri dish was filled with mycelium (usually after 12 days). […] The solutions of the compounds were prepared with a concentration of 2 mmol/L (stock solution). For comparison, test compounds were also commonly applied as disinfecting agents, and antibiotics were used as a positive control.

[10] = tested on: Phytophthora cactorum VKM F-985; test: Mycelial radial growth inhibition; assay type: cell-based; details: Phytophthora cactorum; for inhibition at 10 µg/mL / inhibition at 15 µg/mL / inhibition at 30 µg/mL / inhibition at 60 µg/mL: read-out: Inhibition value, I (%)
Excerpt: as §7, §9

SMILES: [Na+].[O-]Cl [sodium hypochlorite, reference compound]
- width of the inhibition zone (mm), M. luteus ([4]; 1000 μg/mL): 2.5 mm
- width of the inhibition zone (mm), P. atrosepticum ([5]; 1000 μg/mL): 4 mm
- width of the inhibition zone (mm), P. carotovorum subsp. carotovorum ([6]; 1000 μg/mL): 3 mm
- width of the inhibition zone (mm), Ps. fluorescens ([7]; 1000 μg/mL): 4 mm
- width of the inhibition zone (mm), X. campestris ([8]; 1000 μg/mL): 4 mm

SMILES: N#Cc1c[nH]cc1-c1cccc2c1OC(F)(F)O2 [Fludioxonil, fludioxonil, reference compound]
- inhibition at 10 µg/mL ([9]; IBPPM543, 72 h): 18%
- inhibition at 15 µg/mL ([9]; IBPPM543, 72 h): 21%
- inhibition at 30 µg/mL ([9]; IBPPM543, 72 h): 26%
- inhibition at 60 µg/mL ([9]; IBPPM543, 72 h): 32%
- EC50 ([9]; IBPPM543, 120 h, read-out: EC50, µg/mL at Day 5, F. oxysporum): 83.3 µg/mL (≈ 336 µM)
- inhibition at 10 µg/mL ([9]; IBPPM543, 120 h): 23%
- inhibition at 15 µg/mL ([9]; IBPPM543, 120 h): 30%
- inhibition at 30 µg/mL ([9]; IBPPM543, 120 h): 33%
- inhibition at 60 µg/mL ([9]; IBPPM543, 120 h): 35%
- inhibition at 10 µg/mL ([9]; IBPPM543, 168 h): 6%
- inhibition at 15 µg/mL ([9]; IBPPM543, 168 h): 20%
- inhibition at 30 µg/mL ([9]; IBPPM543, 168 h): 23%
- inhibition at 60 µg/mL ([9]; IBPPM543, 168 h): 25%
- inhibition at 10 µg/mL ([9]; IBPPM543, 216 h): 4%
- inhibition at 15 µg/mL ([9]; IBPPM543, 216 h): 5%
- inhibition at 30 µg/mL ([9]; IBPPM543, 216 h): 8%
- inhibition at 60 µg/mL ([9]; IBPPM543, 216 h): 9%
- inhibition at 10 µg/mL ([10]; 72 h): 36%
- inhibition at 15 µg/mL ([10]; 72 h): 38%
- inhibition at 30 µg/mL ([10]; 72 h): 40%
- inhibition at 60 µg/mL ([10]; 72 h): 52%
- EC50 ([10]; 120 h, read-out: EC50, µg/mL at Day 5, P. cactorum): 29.5 µg/mL (≈ 119 µM)
- inhibition at 10 µg/mL ([10]; 120 h): 38%
- inhibition at 15 µg/mL ([10]; 120 h): 46%
- inhibition at 30 µg/mL ([10]; 120 h): 51%
- inhibition at 60 µg/mL ([10]; 120 h): 57%
- inhibition at 10 µg/mL ([10]; 168 h): 35%
- inhibition at 15 µg/mL ([10]; 168 h): 42%
- inhibition at 30 µg/mL ([10]; 168 h): 46%
- inhibition at 60 µg/mL ([10]; 168 h): 49%
- inhibition at 10 µg/mL ([10]; 216 h): 9%
- inhibition at 15 µg/mL ([10]; 216 h): 17%
- inhibition at 30 µg/mL ([10]; 216 h): 23%
- inhibition at 60 µg/mL ([10]; 216 h): 29%

SMILES: N=C(NCCCCCCNC(=N)NC(=N)Nc1ccc(Cl)cc1)NC(=N)Nc1ccc(Cl)cc1 [Chlorohexidin, chlorohexidin, reference compound]
- width of the inhibition zone (mm), M. luteus ([4]; 500 μg/mL): 5 mm
- width of the inhibition zone (mm), P. atrosepticum ([5]; 500 μg/mL): 4 mm
- width of the inhibition zone (mm), P. carotovorum subsp. carotovorum ([6]; 500 μg/mL): 5 mm
- width of the inhibition zone (mm), Ps. fluorescens ([7]; 500 μg/mL): 4 mm
- width of the inhibition zone (mm), X. campestris ([8]; 500 μg/mL): 5 mm

SMILES: CCn1cc(C(=O)O)c(=O)c2cc(F)c(N3CCNCC3)cc21 [Norfloxacin, norfloxacin, reference compound]
- zone of inhibition at 500 µg/mL ([4]; Micrococcus luteus, B109, 500 μg/mL, read-out: width of the inhibition zone (mm), M. luteus): 7 mm
- zone of inhibition at 500 µg/mL ([5]; Pectobacterium atrosepticum, 1043, 500 μg/mL, read-out: width of the inhibition zone (mm), P. atrosepticum): 7 mm
- zone of inhibition at 500 µg/mL ([6]; Pectobacterium carotovorum, 500 μg/mL, read-out: width of the inhibition zone (mm), P. carotovorum subsp. carotovorum): 8 mm
- zone of inhibition at 500 µg/mL ([7]; Pseudomonas fluorescens, EL2.1, 500 μg/mL, read-out: width of the inhibition zone (mm), Ps. fluorescens): 8 mm
- zone of inhibition at 500 µg/mL ([8]; Xanthomonas campestris, B610, read-out: width of the inhibition zone (mm), X. campestris): 7 mm

Continued, in another order:

- IC50 [1]: 65.7 ± 5.9 µM
- melting point: 131 to 132 °C
SMILES: O=C1C(=O)N(Cc2c(F)cccc2F)c2ccc(F)cc21 [Compound 3c, 1-(2,6-Difluorobenzyl)-5-fluoroindoline-2,3-dione]
- IC50 [2]: 41.2 ± 2.7 µM
- IC50 [3]: 95.5 ± 8 µM

- IC50 [1]: 58.4 ± 4.1 µM
- melting point: 136 to 137 °C
SMILES: CC(C)(C)c1cc(CN2C(=O)C(=O)c3cc(F)ccc32)cc(C(C)(C)C)c1 [Compound 4d, 1-(3,5-Di-tert-butylbenzyl)-5-fluoroindoline-2,3-dione]
- IC50 [2]: 33.3 ± 2.3 µM
- IC50 [3]: 39.4 ± 2.8 µM

- IC50 [1]: > 100 µM
SMILES: O=C1C(=O)N(Cc2c(F)c(F)c(F)c(F)c2F)c2ccccc21 [Compound 8d]
- IC50 [2]: 54.1 ± 3.9 µM
- IC50 [3]: > 100 µM

- melting point: 170 to 171 °C
SMILES: O=C1C(=O)N(Cc2cccc(C(F)(F)F)c2)c2ccc(F)cc21 [Compound 3e, 5-Fluoro-1-(3-(trifluoromethyl)benzyl)indoline-2,3-dione]

- IC50 [1]: > 100 µM
- melting point: 123 to 124 °C
SMILES: CC(C)(C)c1ccc(CN2C(=O)C(=O)c3cc(F)ccc32)cc1 [Compound 4c, 1-(4-(tert-Butyl)benzyl)-5-fluoroindoline-2,3-dione]
- IC50 [2]: 43 ± 3 µM
- IC50 [3]: 92.1 ± 7.4 µM

- IC50 [1]: 98.8 ± 6.9 µM
SMILES: O=C1C(=O)N(Cc2c(F)cccc2F)c2ccccc21 [Compound 8c]
- IC50 [2]: 50.3 ± 3.6 µM
- IC50 [3]: 79 ± 5.5 µM

- IC50 [1]: 40 ± 2.8 µM
SMILES: O=C1C(=O)N(Cc2ccc(Br)cc2F)c2ccccc21 [Compound 8b]
- IC50 [2]: 59.4 ± 4.2 µM
- IC50 [3]: 100 ± 8.4 µM

- IC50 [1]: 50 ± 3.7 µM
SMILES: O=C1C(=O)N(Cc2ccc(F)cc2Cl)c2ccccc21 [Compound 8a]
- IC50 [2]: 64 ± 4.5 µM
- IC50 [3]: > 100 µM
